pEC50, pIC50: −log10 of the molar value.
Key:
[1] = test system: pSer473-Akt in A2780 cells; experiment: pSer473 Akt assay to monitor PI3K pathway in A2780 cells (MSD); type: cell-based; details: Homo sapiens; A2780 cells; read-out: A2780 pAKT 473 EC50
Experimental: In this method, an assay for measuring the PI3K-mediated pSer^473-Akt status after treatment with representative inhibitor compounds of the preferred embodiments is described.
A2780 cells were cultured in DMEM supplemented with 10% FBS, L-glutamine, sodium pyruvate, and antibiotics. Cells were plated in the same medium at a density of 15,000 cells per well into 96 well tissue culture plates, with outside wells vacant, and allowed to adhere overnight.
Test compounds supplied in DMSO were diluted further into DMSO at 500 times the desired final concentrations before dilution into culture media to 2 times the final concentrations. Equal volumes of 2× compounds in media were added to the cells in 96 well plates and incubated at 37° C. for one hour. The media and compounds were then removed, the plates chilled and cells lysed in a lysis buffer (150 mM NaCl, 20 mM Tris pH 7.5, 1 mM EDTA, 1 mM EGTA, 1% Triton X-100) supplemented with phosphatase and protease inhibitors. After thorough mixing, lysates were transferred to both pSer473Akt and total Akt assay plates from Meso Scale Discovery (MSD), and incubated overnight with shaking at 4° C. The plates were washed with 1×MSD wash buffer and the captured analytes detected with secondary antibodies. After incubation with the secondary antibody at room temperature for 1-2 hours, the plates were washed again and 1.5× concentration of Read Buffer T (MSD) was added to the wells.
The assays were read on a SECTOR Imager 6000 instrument (Meso Scale Discovery). Ratios of the signal from pSer473Akt and total Akt assays were used to correct for any variability and the percent inhibition of pSer473Akt from the total signal seen in cells treated with compound versus DMSO alone was calculated and used to determine EC50 values for each compound as shown in Tables 1 and 2 in the column labeled “A2780 pAKT473 EC50”.

A2780 cells = experiment: Viability assay in A2780 (Cell Titer Glo); type: cell-based, human; details: Homo sapiens; A2780 cells; read-out: A2780 Cell prolif. EC50
How it was run: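 A2780 cells (1,000/well, DMEM + 10% FBS) were exposed to 3-fold serial dilutions of compound for 72 hrs at 37° C, 5% CO2. Viable cells were read by Cell Titer Glo luminescence, in duplicate, and EC50 values were derived from the curves.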

PI3 K Alpha = PI3 K Alpha (Homo sapiens, UniProt P42336); experiment: PI3 kinase phosphorylation assays (homogenous solution phase, one step solid phase, ATP depletion/KinaseGlo); type: biochemical; details: read-out: PI3K Alpha IC50
PI3 K Alpha, sequence (P42336 whole entry): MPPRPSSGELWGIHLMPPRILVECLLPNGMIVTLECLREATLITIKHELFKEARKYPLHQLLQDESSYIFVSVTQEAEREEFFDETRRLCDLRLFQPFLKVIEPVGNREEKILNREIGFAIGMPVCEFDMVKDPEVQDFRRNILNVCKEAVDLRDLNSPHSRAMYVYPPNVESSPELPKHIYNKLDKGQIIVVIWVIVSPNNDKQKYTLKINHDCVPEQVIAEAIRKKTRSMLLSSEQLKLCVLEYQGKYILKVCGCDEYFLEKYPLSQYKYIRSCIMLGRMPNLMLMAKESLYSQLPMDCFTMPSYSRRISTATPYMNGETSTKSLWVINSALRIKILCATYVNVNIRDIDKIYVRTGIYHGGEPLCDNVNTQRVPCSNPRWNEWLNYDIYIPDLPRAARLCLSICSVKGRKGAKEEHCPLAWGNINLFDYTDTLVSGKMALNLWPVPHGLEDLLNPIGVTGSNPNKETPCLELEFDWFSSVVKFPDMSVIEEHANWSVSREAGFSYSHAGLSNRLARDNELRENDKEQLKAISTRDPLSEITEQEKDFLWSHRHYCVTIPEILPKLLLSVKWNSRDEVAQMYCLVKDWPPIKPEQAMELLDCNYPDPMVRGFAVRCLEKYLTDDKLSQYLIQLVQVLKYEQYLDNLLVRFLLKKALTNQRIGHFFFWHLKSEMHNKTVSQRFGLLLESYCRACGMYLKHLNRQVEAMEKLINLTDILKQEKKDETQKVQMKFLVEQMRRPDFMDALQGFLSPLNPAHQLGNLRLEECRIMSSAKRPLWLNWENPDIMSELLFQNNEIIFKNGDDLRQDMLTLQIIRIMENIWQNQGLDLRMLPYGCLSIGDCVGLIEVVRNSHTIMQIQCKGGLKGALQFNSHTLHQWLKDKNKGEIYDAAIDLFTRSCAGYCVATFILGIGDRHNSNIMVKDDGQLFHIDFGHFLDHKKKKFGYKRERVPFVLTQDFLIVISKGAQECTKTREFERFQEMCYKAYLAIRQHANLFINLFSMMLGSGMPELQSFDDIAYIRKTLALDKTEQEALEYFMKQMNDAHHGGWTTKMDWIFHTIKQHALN
PI3 K Alpha, sequence (P27986 whole entry partner): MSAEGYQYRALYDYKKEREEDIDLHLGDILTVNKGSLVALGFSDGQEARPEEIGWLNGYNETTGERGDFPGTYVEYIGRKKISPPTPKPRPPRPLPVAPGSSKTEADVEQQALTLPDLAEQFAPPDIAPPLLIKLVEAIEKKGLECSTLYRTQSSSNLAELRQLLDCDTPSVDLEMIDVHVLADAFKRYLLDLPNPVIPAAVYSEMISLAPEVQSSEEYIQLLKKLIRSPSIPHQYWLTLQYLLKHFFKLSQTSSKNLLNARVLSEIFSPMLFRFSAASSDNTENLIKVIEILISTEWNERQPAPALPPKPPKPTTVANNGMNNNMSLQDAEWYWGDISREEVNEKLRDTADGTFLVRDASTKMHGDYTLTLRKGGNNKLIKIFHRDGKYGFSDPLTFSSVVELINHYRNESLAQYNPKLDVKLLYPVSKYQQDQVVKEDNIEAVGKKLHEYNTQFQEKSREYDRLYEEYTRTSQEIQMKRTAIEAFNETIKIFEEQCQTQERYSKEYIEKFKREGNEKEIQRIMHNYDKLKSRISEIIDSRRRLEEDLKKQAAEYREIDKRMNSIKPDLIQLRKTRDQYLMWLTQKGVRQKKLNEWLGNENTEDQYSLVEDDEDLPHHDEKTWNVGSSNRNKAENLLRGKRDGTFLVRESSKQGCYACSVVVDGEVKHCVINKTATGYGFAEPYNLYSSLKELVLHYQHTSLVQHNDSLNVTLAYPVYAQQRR

pEC50 [1]	pEC50 (A2780 cells)	pIC50 (PI3 K Alpha)	Structure (SMILES)
> 4.60	> 4.60	> 6.00	CC(=O)Nc1nc2ccc(-c3cnc(N)c(C(F)(F)F)c3)cn2c1-c1ccc(C(N)=O)cc1 [Example 13, 4-[2-Acetylamino-6-(6-amino-5-trifluoromethyl-pyridin-3-yl)-imidazo[1,2-a]pyridin-3-yl]-benzamide]
> 5.00	> 4.60	> 6.00	CNC(=O)c1ccc(-c2c(NC(C)=O)nc3ccc(-c4cnc(N)c(C(F)(F)F)c4)cn23)cc1 [Example 18, 4-[2-Acetylamino-6-(6-amino-5-trifluoromethyl-pyridin-3-yl)-imidazo[1,2-a]pyridin-3-yl]-N-methyl-benzamide]
> 6.00	> 5.00	> 6.00	COC(=O)Nc1cn2cc(-c3cnc(N)c(C(F)(F)F)c3)ccc2n1 [Example 19, [6-(6-Amino-5-trifluoromethyl-pyridin-3-yl)-imidazo[1,2-a]pyridin-2-yl]-carbamic acid methyl ester]
> 6.00	> 5.00	> 6.00	CC(=O)Nc1nc2ccc(-c3cnc(N)c(C(F)(F)F)c3)cn2c1C#Cc1ccccc1 [Example 23, N-[6-(6-Amino-5-trifluoromethyl-pyridin-3-yl)-3-phenylethynyl-imidazo[1,2-a]pyridin-2-yl]-acetamide]
> 6.00	> 5.00	> 6.00	Nc1ncc(-c2ccc3nc(NC(=O)CCCN4CCCCC4)cn3c2)cc1C(F)(F)F [Example 25, N-[6-(6-Amino-5-trifluoromethyl-pyridin-3-yl)-imidazo[1,2-a]pyridin-2-yl]-4-piperidin-1-yl-butyramide]
> 6.00	> 5.00	> 6.00	Nc1ncc(-c2ccc3nc(NC(=O)CCCN4CCOCC4)cn3c2)cc1C(F)(F)F [Example 26, N-[6-(6-Amino-5-trifluoromethyl-pyridin-3-yl)-imidazo[1,2-a]pyridin-2-yl]-4-morpholin-4-yl-butyramide]
> 6.00	> 5.00	> 6.00	Nc1ncc(-c2ccc3nc(NC(=O)CCCO)cn3c2)cc1C(F)(F)F [Example 27, N-[6-(6-Amino-5-trifluoromethyl-pyridin-3-yl)-imidazo[1,2-a]pyridin-2-yl]-4-hydroxy-butyramide]
> 6.00	> 4.60	> 6.00	CC(=O)Nc1cn2cc(-c3cnc(N)c(F)c3)ccc2n1 [Example 28, N-[6-(6-Amino-5-fluoro-pyridin-3-yl)-imidazo[1,2-a]pyridin-2-yl]-acetamide]
> 5.00	> 4.60	> 6.00	CC(=O)Nc1cn2cc(-c3cnc(N)cc3F)ccc2n1 [Example 29, N-[6-(6-Amino-4-fluoro-pyridin-3-yl)-imidazo[1,2-a]pyridin-2-yl]-acetamide]
> 6.00	> 5.00	> 6.00	CCN(CC)CC#Cc1c(NC(C)=O)nc2ccc(-c3cnc(N)c(C(F)(F)F)c3)cn12 [Example 30, N-[6-(6-Amino-5-trifluoromethyl-pyridin-3-yl)-3-(3-diethylamino-prop-1-ynyl)-imidazo[1,2-a]pyridin-2-yl]-acetamide]
> 6.00	> 6.00	> 6.00	CC(=O)Nc1nc2ccc(-c3cnc(N)c(C(F)(F)F)c3)cn2c1C#N [Example 32, N-[6-(6-Amino-5-trifluoromethyl-pyridin-3-yl)-3-cyano-imidazo[1,2-a]pyridin-2-yl]-acetamide]
> 4.60	> 5.00	< 4.60	COc1cc(-c2ccc3nc(NC(C)=O)cn3c2)c(C)nc1N [Example 33, N-(6-(6-amino-5-methoxy-2-methylpyridin-3-yl)imidazo[1,2-a]pyridin-2-yl)acetamide]
> 5.00	> 5.00	> 5.00	CC(=O)Nc1cn2cc(-c3cnc(N)c(-c4ccc(N5CCOCC5)cc4)c3)ccc2n1 [Example 39, N-(6-(6-amino-5-(4-morpholino-phenyl)pyridin-3-yl)imidazo[1,2-a]pyridin-2-yl)acetamide]

From US20100075965A1, “PI3 KINASE INHIBITORS AND METHODS OF THEIR USE” (Novartis AG, priority 2006, published 2010)
